US12344610B2, “APOL1 inhibitors and methods of use” (Maze Therapeutics, Inc., priority 2022, dated 2025)
Like-named read-outs stand apart in the source and are kept apart here.

Assays:
[1] = system: HEK293 clonal cell line overexpressing APOL1 G1; assay: APOL1 G1 HEK293 cell rescue assay (Example B3); type: cell-based; settings: geometric mean of at least 2 runs, † = single run, ¥ = concentration at 50% rescue estimated (no sigmoidal curve)
Outline: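 Rescue of cell death caused by APOL1 G1 overexpression was measured in a clonal HEK293 line. Compounds were tested in duplicate on one plate, and EC50s were geometric means across at least two runs on different days. Some values are estimated 50%-rescue concentrations where curve fitting failed.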

[2] = system: Trypanosoma brucei Lister 427 VSG221 with APOL1 G0 recombinant protein; assay: APOL1 G0 trypanosome cell rescue assay (Example B5); type: cell-based; settings: geometric mean of at least 2 assay runs, † = single assay run
Outline: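 Recombinant APOL1 protein, dispensed from a 2 μg/mL stock, and 250 T. brucei per well were co-incubated with test compound (0.4% DMSO) for 20 h. Viability: CellTiter-Glo luminescence.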

[3] = Homo sapiens, HEK293, HEK293 clonal line overexpressing APOL1 G1
[4] = Trypanosoma brucei, 20 h, read-out: APOL1 G0 Trypanosome Rescue EC50, Trypanosoma brucei Lister 427 VSG221 with APOL1 G0 recombinant protein, 20 hours, CellTiter-Glo
[5] = HEK293 clonal line overexpressing APOL1 G1
[6] = read-out: APOL1 G0 Trypanosome Rescue EC50, Trypanosoma brucei Lister 427 VSG221 with APOL1 G0 recombinant protein, 20 hours, CellTiter-Glo

| SMILES | EC50 [1, 3] [nM] | EC50 [2, 4] [nM] | EC50 [1, 5] [nM] | EC50 [2, 6] [nM] |
| --- | --- | --- | --- | --- |
| CC(c1ncc(OCCN2CCC3(CC2)C(=O)Nc2ccc(Cl)cc23)cn1)S(C)(=O)=O (single isomer, unassigned) [Compound 2, 5-chloro-1′-[2-({2-[(1S) or (1R)-1-methanesulfonylethyl]pyrimidin-5-yl}oxy)ethyl]-1,2-dihydrospiro[indole-3,4′-piperidin]-2-one] | 346 | 192 |  |  |
| CC(c1ncc(OCCN2CCC3(CC2)C(=O)Nc2ccc(Cl)cc23)cn1)S(C)(=O)=O (single isomer, unassigned) [Compound 3, 5-chloro-1′-[2-({2-[(1R) or (1S)-1-methanesulfonylethyl]pyrimidin-5-yl}oxy)ethyl]-1,2-dihydrospiro[indole-3,4′-piperidin]-2-one] |  |  | 257 | 248 |
| CC(O)c1ncc(OCCN2CCC3(CC2)C(=O)Nc2ccc(C#N)cc23)cc1C(F)(F)F (single isomer, unassigned) [Compound 376, 1′-[2-({6-[(1S) or (1R)-1-hydroxyethyl]-5-(trifluoromethyl)pyridin-3-yl}oxy)ethyl]-2-oxo-1,2-dihydrospiro[indole-3,4′-piperidine]-5-carbonitrile] | 129 |  |  | 95.6 |
| CC(O)c1ncc(OCCN2CCC3(CC2)C(=O)Nc2ccc(C#N)cc23)cc1C(F)(F)F (single isomer, unassigned) [Compound 377, 1′-[2-({6-(1S) or (1R)-1-hydroxyethyl]-5-(trifluoromethyl)pyridin-3-yl}oxy)ethyl]-2-oxo-1,2-dihydrospiro[indole-3,4′-piperidine]-5-carbonitrile] |  |  | 172 | 205 |
| CS(=O)(=O)C1(c2ncc(OCCN3CCC4(CC3)C(=O)Nc3ccc(C(F)F)cc34)cn2)CC1 [Compound 5, 5-(difluoromethyl)-1′-(2-{[2-(1-methanesulfonylcyclopropyl)pyrimidin-5-yl]oxy}ethyl)-1,2-dihydrospiro[indole-3,4′-piperidin]-2-one] | 295 | 150 |  |  |
| CS(=O)(=O)C1(c2ncc(OCCN3CCC4(CC3)C(=O)Nc3ccc(OC(F)F)cc34)cn2)CC1 [Compound 6, 5-(difluoromethoxy)-1′-(2-{[2-(1-methanesulfonylcyclopropyl)pyrimidin-5-yl]oxy}ethyl)-1,2-dihydrospiro[indole-3,4′-piperidin]-2-one] | 252 | 381 |  |  |
| O=C1CCc2cc(OCCN3CCC4(CC3)C(=O)Nc3ccc(Cl)cc34)ccc2N1 [Compound 82, 5-chloro-1′-{2-[(2-oxo-1,2,3,4-tetrahydroquinolin-6-yl)oxy]ethyl}-1,2-dihydrospiro[indole-3,4′-piperidin]-2-one] | 252 | 254 |  |  |
| CS(=O)(=O)C1(c2c(F)cc(OCCN3CCC4(CC3)C(=O)Nc3ccc(C#N)cc34)cc2F)COC1 [Compound 84, 1′-{2-[3,5-difluoro-4-(3-methanesulfonyloxetan-3-yl)phenoxy]ethyl}-2-oxo-1,2-dihydrospiro[indole-3,4′-piperidine]-5-carbonitrile] | 233 | 101 |  |  |
| O=C1Nc2ccc(Cl)cc2C12CCN(CCOc1ccc3c(cnn3[C@H]3C[C@@H](O)C3)c1)CC2 [Compound 85, 5-chloro-1′-[2-({1-[(cis)-3-hydroxycyclobutyl]-1H-indazol-5-yl}oxy)ethyl]-1,2-dihydrospiro[indole-3,4′-piperidin]-2-one] | 157 | 115 |  |  |
| O=C1Nc2ccc(Cl)cc2C12CCN(CCOc1ccc3c(cnn3[C@H]3C[C@H](O)C3)c1)CC2 [Compound 86, 5-chloro-1′-[2-({1-[(trans)-3-hydroxycyclobutyl]-1H-indazol-5-yl}oxy)ethyl]-1,2-dihydrospiro[indole-3,4′-piperidin]-2-one] | 126 | 96.4 |  |  |
| O=C1Nc2ccc(Cl)cc2C12CCN(CCOc1ccc3[nH]ncc3c1)CC2 [Compound 87, 5-chloro-1′-[2-(2H-indazol-5-yloxy)ethyl]-1,2-dihydrospiro[indole-3,4′-piperidin]-2-one] | 281 | 268 |  |  |
| Cn1c(=O)[nH]c2cc(OCCN3CCC4(CC3)C(=O)Nc3ccc(Cl)cc34)ccc21 [Compound 88, 5-chloro-1′-{2-[(1-methyl-2-oxo-2,3-dihydro-1H-1,3-benzodiazol-5-yl)oxy]ethyl}-1,2-dihydrospiro[indole-3,4′-piperidin]-2-one] | 438 | 451 |  |  |
| CS(=O)(=O)c1c(F)cc(OCCN2CCC3(CC2)C(=O)Nc2ccc(Cl)cc23)cc1F [Compound 89, 5-chloro-1′-[2-(3,5-difluoro-4-methanesulfonylphenoxy)ethyl]-1,2-dihydrospiro[indole-3,4′-piperidin]-2-one] | 138 | 101 |  |  |
| CS(=O)(=O)c1c(F)cc(OCCN2CCC3(CC2)C(=O)Nc2ccc(C#N)cc23)cc1F [Compound 90, 1′-[2-(3,5-difluoro-4-methanesulfonylphenoxy)ethyl]-2-oxo-1,2-dihydrospiro[indole-3,4′-piperidine]-5-carbonitrile] | 594 | 546 |  |  |
| COC(=O)C1(S(=O)(=O)c2ccc(OCCN3CCC4(CC3)C(=O)Nc3ccc(Cl)cc34)cc2)CC1 [Compound 91, methyl 1-[4-(2-{5-chloro-2-oxo-1,2-dihydrospiro[indole-3,4′-piperidin]-1′-yl}ethoxy)benzenesulfonyl]cyclopropane-1-carboxylate] | 99 | 54.6 |  |  |
| CC1(S(=O)(=O)c2ccc(OCCN3CCC4(CC3)C(=O)Nc3ccc(Cl)cc34)cc2)COC1 [Compound 92, 5-chloro-1′-(2-{4-[(3-methyloxetan-3-yl)sulfonyl]phenoxy}ethyl)-1,2-dihydrospiro[indole-3,4′-piperidin]-2-one] | 101 | 84.4 |  |  |
| CC1(S(=O)(=O)c2ccc(OCCN3CCC4(CC3)C(=O)Nc3ccc(C#N)cc34)cc2)COC1 [Compound 93, 1′-(2-{4-[(3-methyloxetan-3-yl)sulfonyl]phenoxy}ethyl)-2-oxo-1,2-dihydrospiro[indole-3,4′-piperidine]-5-carbonitrile] | 230 | 156 |  |  |
| CS(=O)(=O)N1CCc2cc(OCCN3CCC4(CC3)C(=O)Nc3ccc(Cl)cc34)ccc2C1 [Compound 94, 5-chloro-1′-{2-[(2-methanesulfonyl-1,2,3,4-tetrahydroisoquinolin-6-yl)oxy]ethyl}-1,2-dihydrospiro[indole-3,4′-piperidin]-2-one] | 210 | 403 |  |  |
| CN1C(=O)CCc2cc(OCCN3CCC4(CC3)C(=O)Nc3ccc(C#N)cc34)ccc21 [Compound 95, 1′-{2-[(1-methyl-2-oxo-1,2,3,4-tetrahydroquinolin-6-yl)oxy]ethyl}-2-oxo-1,2-dihydrospiro[indole-3,4′-piperidine]-5-carbonitrile] | 457 | 592 |  |  |
| CC(C)N1C(=O)CCc2cc(OCCN3CCC4(CC3)C(=O)Nc3ccc(C#N)cc34)ccc21 [Compound 96, 2-oxo-1′-(2-{[2-oxo-1-(propan-2-yl)-1,2,3,4-tetrahydroquinolin-6-yl]oxy}ethyl)-1,2-dihydrospiro[indole-3,4′-piperidine]-5-carbonitrile] | 148 | 122 |  |  |
| CC(C)N1C(=O)CCc2cc(OCCN3CCC4(CC3)C(=O)Nc3ccc(Cl)cc34)ccc21 [Compound 97, 5-chloro-1′-(2-{[2-oxo-1-(propan-2-yl)-1,2,3,4-tetrahydroquinolin-6-yl]oxy}ethyl)-1,2-dihydrospiro[indole-3,4′-piperidin]-2-one] | 143 | 99 |  |  |
| CS(=O)(=O)N(CCO)c1ccc(OCCN2CCC3(CC2)C(=O)Nc2ccc(Cl)cc23)cc1 [Compound 98, N-[4-(2-{5-chloro-2-oxo-1,2-dihydrospiro[indole-3,4′-piperidin]-1′-yl}ethoxy)phenyl]-N-(2-hydroxyethyl)methanesulfonamide] | 183 | 207 |  |  |
| O=C1CCc2cc(OCCN3CCC4(CC3)C(=O)Nc3ccc(Cl)cc34)cnc2N1[C@H]1C[C@H](O)C1 [Compound 267, 5-chloro-1′-[2-({7-oxo-8-[(trans)-3-hydroxycyclobutyl]-5,6,7,8-tetrahydro-1,8-naphthyridin-3-yl}oxy)ethyl]-1,2-dihydrospiro[indole-3,4′-piperidin]-2-one] | 137 | 95.4 |  |  |
| CS(=O)(=O)C1(c2ccc(OCCN3CCC4(CC3)C(=O)Nc3ccc(Cl)cc34)cc2)CC(O)C1 (stereo not drawn) [Compound 269, 5-chloro-1′-(2-{4-[(cis) or (trans)-3-hydroxy-1-methanesulfonylcyclobutyl]phenoxy}ethyl)-1,2-dihydrospiro[indole-3,4′-piperidin]-2-one] |  |  | 325 | 207 |
| CS(=O)(=O)C1(c2ccc(OCCN3CCC4(CC3)C(=O)Nc3ccc(Cl)cc34)cc2)CC(O)C1 (stereo not drawn) [Compound 270, 5-chloro-1′-(2-{4-[(trans) or (cis)-3-hydroxy-1-methanesulfonylcyclobutyl]phenoxy}ethyl)-1,2-dihydrospiro[indole-3,4′-piperidin]-2-one] |  |  | 60.7 | 72.5 |
